# Measured values taken from patent publication US8283521B2, “Transcription factor gene induced by water deficit conditions and abscisic acid from Helianthus annuus, promoter and transgenic plants” (Bioceres S.A., priority 2003, dated 2012).
# What was measured:
# Hahb-4 [1] = experiment: Hahb-4 expression in treated sunflower seedlings by RNAse protection; format: in vivo, Helianthus annuus
# Description: We have analyzed the expression of Hahb-4 under different environmental conditions (i.e. water, osmotic, salt, cold, heat, and oxidative stress) by RNAse protection, which is more sensitive than the Northern technique (FIG. 2).
# As many responses to water stress are mediated by ABA, we have also analyzed the effect of this hormone on the expression.
# Helianthus annuus L. (sunflower cv. contiflor 15, from Zeneca, Balcarce, Argentina, or cv. Sunweed, from Rhône-Poulenc, Lyon, France) seeds were surface sterilized and grown on filter paper inside Petri dishes for a period of 4 d. Seedlings were then transferred to plastic supports containing Hoagland's medium and grown until they had six leaves (approximately 3 weeks). Water stress was imposed either by transferring 4-day-old-seedlings to Petri dishes with dry filter paper or by removing plants from the hydroponic culture.
# For RNAse protection analysis, total RNA (15 μg) prepared as described (Almoguera C., et. al.; Plant molecular Biology 19: 781-792, 1992) was hybridized to a specific Hahb-4 riboprobe synthesized by in vitro transcription using T3 RNA polymerase and [^32P]CTP following the instructions of the manufacturer (Boehringer Mannheim, Mannheim, Germany). The template consisted of an insert corresponding to the coding region between +81 and +429 (FIG. 1 and SEQ ID NO 1) cloned into the SpeI/BamHI sites of pBlue-script SK^−. The BamHI site, not present in the cDNA, derives from amplification with oligonucleotide H41 as described above. Restriction digestion of this template DNA with EcoRI allows transcription of a 411-nucleotide RNA probe that contains 63 nucleotides from the vector (from the T3 promoter to the SpeI site in the polylinker, and from the BamHI to the EcoRI sites). Conditions for riboprobe preparation, hybridization, digestion with RNAse A, and subsequent electrophoretic analysis of protected RNA fragments were as previously described (Coca M: A: et. al.; Plant Molecular Biology 31: 863-876, 1996, herein incorporated as reference).
# Arabidopsis thaliana = experiment: Germination in the presence of mannitol or NaCl; format: in vivo; details: 50, 200, 300 mM mannitol
# Protocol: First, the germination process, under conditions imitating the lack of water, such as presence of mannitol, and other conditions generating salt stress, was analyzed. FIGS. 11, 12 and 13 show the germination times of plants transformed according to the invention as compared to control ones. […] This effect is more remarked at higher concentrations of the carbohydrate.
# When the germination tests were carried out in the presence of different concentrations of NaCl the obtained results were similar as in the case of mannitol.
# The seeds from Arabidopsis thaliana were sterilized by washing with ethanol 70% (v/v) (1 min), chlorine 5%-SDS 1% (15 min) and sterile distilled water (3 times). Then the seeds were suspended in 8 ml of agar 0.1% and sowed in 150 mm Petri plates containing MS medium, with the addition of Gamborg's vitamins. The plates were maintained at 4° C. during two days and then placed into a culture chamber with controlled light and temperature (16 hours light at 24° C. and 8 hours darkness at 21° C.). The required illumination conditions (150-200 μE/m 2) were artificially obtained by keeping the plants at a distance of 25 cm from six fluorescent tubes, intercalating white light and Grolux tubes (from Sylvania) adjacently located.
# Hahb-4 [2] = experiment: Time dependence of the response of Hahb-4 to ABA by Northern analysis; format: in vivo, Helianthus annuus; details: 100 μM ABA
# Protocol: Total RNA (20 μg) was isolated from seedlings that were either untreated, or treated with 100 μM ABA for different times as indicated in each lane. In the lower panel, the same filter was hybridized with an rRNA probe as a control for RNA loading and transfer.
# The high level of induction observed under water stress conditions allowed us to analyze the time-dependent increase in transcript levels by Northern experiments. […] After this time, no further increments in Hahb-4 transcript levels were observed. Re-hydration of the seedlings lowered Hahb-4 transcript levels more slowly, with only about a 50% decrease after 2 h (FIG. 3, lanes 4 and 5). The effect of ABA treatment was also time dependent. […] The high Hahb-4 transcript levels of the invention are reverted after the re-hydration of the sunflower plants, thus indicating again that said gene participates in the response to the water stress.
# Total RNA (20 μg) was denatured with formamide and formaldehyde, separated in a 1.5% (w/v) agarose/6% formaldehyde gel, and blotted onto nylon membranes (Hybond N; Amersham-Pharmacia, Buckinghamshire, UK) essentially as described by Sambrook, Fritsch & Maniatis (1989).
# Hybridization was performed overnight at 65° C. in 6×SSC (1×SSC is 0.15 M NaCl, 0.015 M Na3-citrate, pH 7.0), 0.1% (w/v) polyvinylpirrolidone, 0.1% (w/v) bovine serum albumin, 0.1% (w/v) Ficoll, 0.5% (w/v) sodium dodecyl sulphate (SDS). […] The filters were autoradiographed using Bio-Max films and transcreen (Eastman Kodak, Rochester, N.Y., USA) overnight. To check the amount of total RNA loaded in each lane, filters were then re-probed with a 25S rRNA from Vicia faba under similar conditions as those described above, except that hybridization was performed at 62° C.
# [3] = test system: 5′-CAAT(A/T)ATTG-3′ DNA sequence; experiment: Electrophoretic mobility shift assay with nuclear extracts of treated seedlings; format: binding, Helianthus annuus; details: nuclear extracts from ABA-treated 4-day-old seedlings
# Protocol: The presence of functional DNA binding proteins in sunflower nuclei was analyzed by electrophoretic mobility shift assays using a synthetic double-stranded oligonucleotide comprising the sequence 5′-CAAT(A/T)ATTG-3′ (SEQ ID NO:23) bound in vitro by Hahb-4 expressed in bacteria. […] On the contrary, only the slower-migrating complex increased when plants were subjected to water stress. Formation of both complexes was almost completely abolished by an excess of the same unlabelled DNA, but not by an equivalent amount of a similar DNA containing the sequence 5′-CACT(A/T)AGTG-3′ (SEQ ID NO:31) (changed positions underlined) not bound by Hahb-4 (FIG. 6).
# Sunflower nuclei and nuclear extracts were prepared from control, water-stressed, or ABA-treated seedlings (4-days-old) according to the technique described in Maliga et al. (Methods in Plant Molecular Biology. A Laboratory Course Manual, pages 233-260. Cold Spring Harbor Laboratory Press, Cold Spring Harbor, N.Y., USA, 1995, herein incorporated by reference). Protein patterns were analyzed by SDS-polyacryla-mide gel electrophoresis (PAGE) and total protein concentration was measured as described Sedmak J. et. al., Analytical Biochemistry 79: 544-552, 1977. […]
Structure (SMILES),"Hahb-4 expression (Hahb-4 [1]; 0.5 M mannitol during 4 h, 4-day-old seedlings)",effect of mannitol on germination (Arabidopsis thaliana),Hahb-4 transcript levels (Hahb-4 [1]; 10 μM ABA),"Hahb-4 expression (Hahb-4 [1]; 100 μM ABA, 24 h, irrigated 4-day-old seedlings)",Hahb-4 transcript levels after 24 h of treatment (Hahb-4 [2]; 24 h),time of maximum response of Hahb-4 to ABA (Hahb-4 [2]; seedlings) [h],time until response of Hahb-4 to ABA is detectable (Hahb-4 [2]; seedlings) [h],amount of both protein complexes binding the Hahb-4 target sequence [3]
"OC[C@@H](O)[C@@H](O)[C@H](O)[C@H](O)CO [Mannitol, mannitol]","induced Hahb-4 expression, although at lower levels",delays the germination,–,–,–,–,–,–
"CC1=CC(=O)CC(C)(C)[C@@]1(O)/C=C/C(C)=C\C(=O)O [ABA, abscisic acid]",–,–,"smaller, but significant increase in transcript levels",induction was observed,still significantly high,3 to 6,≤ 1,significantly increased
